Columns and labels:
collagenase = conditions: Yu et al. 1991; cited from earlier work
[1] = test system: patients with Osteoarthritis; test: Clinical study: response to antibiotic treatment as determined by direct questions to the patients; assay type: in vivo, human; conditions: following 4 weeks of treatment
Excerpt: (§1) Thirty patients were diagnosed and treated for one month with the antibiotic known generically internationally as Doxycycline, this was purchased as Vibramycin from Pfizer. Samples from synovial fluid were taken before and after treatment. We identified 30 patients that had clinical and radiological signs of Osteoarthritis. These patients were informed and signed a paper according to the instructions from the ethical committee (Northern Norway Health Region 5). During the first visit we took a sample from the synovial fluid. Standard technique, upper lateral portal, using a 10 ml. syringe. […] The samples were immediately put into an icebox and brought to the lab. All the patients were given Vibramycin 100 mg daily for 4 weeks. From the patients where we found the bacteria, we took new synovial-fluid samples using the same technique. Table 3 below show a summary of the response to antibiotic treatment with tetracycline for four weeks as determined by direct questions to the patients on how they felt.

[2] = test system: patients with Osteoarthritis; test: Clinical study: antibiotic treatment of patients with osteoarthritis, KOOS (Knee Injury and Osteoarthritis Outcome Score); assay type: in vivo, human; conditions: 100 mg daily for 4 weeks
Excerpt: as §1, with “5). We used the KOOS (Knee Injury and Osteoarthritis Outcome Score) [Roos et al: Development of a self-administered outcome measure. Journal of Orthopaedic and Sports Physical Therapy 78(2): 88-96, 1998] and the Lysholm score [Ref. […] and Lysholm: Rating systems in the Evaluation of Knee Ligament Injuries. Clinical Orthopaedics an Related Research Number 198 September 1985: 43-49.]” for “5).”, “[…] KOOS: These parameters were analysed. • Symptoms • Activity” for “Table 3 below show a summary”, “daily living • Sport • Quality of daily living • Pain” for “the response to antibiotic treatment with tetracycline for four weeks as determined by direct questions to the patients on how they felt.”

Pseudomonas [3] = conditions: cited from earlier work
Pseudomonas [4] = conditions: cited from earlier work; remark: listed apart in the source

C[C@H]1c2cccc(O)c2C(O)=C2C(=O)[C@]3(O)C(O)=C(C(N)=O)C(=O)[C@@H](N(C)C)[C@@H]3[C@@H](O)[C@@H]21 [Vibramycin, Doxycycline]
the patient's collagenase activity (collagenase): inhibit the patient's collagenase activity
symptoms in the majority of patients tested [1]: improved symptoms
clinical scores for the patient (KOOS and Lysholm) [2]: improved all the clinical scores

CC(O)C(=O)O.O=C(O)c1cn(C2CC2)c2cc(N3CCNCC3)c(F)cc2c1=O [ciprofloxacinlactate]
effectiveness against Pseudomonas (Pseudomonas [3]): effective against Pseudomonas

NC(N)=NCCS [mercaptoethylguanidine]
inflammatory response of Pseudomonas infection due to nitric oxide (Pseudomonas [4]): inhibit the inflammatory response

Source: patent publication US8318422B2, “Antibacterial treatment of osteoarthritis” (Orthogenics AS, priority 2001, dated 2012)
